Tested on: subjects with mIDH1 advanced AML
Experiment: Phase I study: safety and tolerability (TEAE, DLT, MTD, ECG)
Format: in vivo
Conditions: 600 mg BID, n=4
Method: This study was an open-label, nonrandomized, multicenter phase I trial. Subjects were screened at 13 hospital sites in 2 countries (USA and Germany). The study was to consist of dose-escalation followed by dose-expansion. The MTD identified in dose-escalation was to be used in the dose-expansion. If MTD was not reached in dose-escalation, a dose for the expansion would be selected based on available PK, pharmacodynamic, safety, and efficacy data. BAY1436032 was administered twice-daily (BID) in continuous 28-day cycles. In dose-escalation, up to 9 evaluable subjects could be enrolled per cohort, with a minimum of 3 dose-limiting toxicity (DLT)-free evaluable subjects required prior to escalating to the next highest dose. Bayesian dose-DLT modeling was performed to help guide dosing decisions.
DLTs were differentially defined for nonhematopoietic versus hematopoietic toxicities. Nonhematopoietic toxicities of ≥grade 3 occurring during the first cycle of treatment were to be considered DLTs with the following exceptions: (1) Alopecia and nausea controlled by medical management; (2) Tumor lysis syndrome if successfully managed clinically and resolved within 7 days without any end-organ damage; (3) Differentiation syndrome (DS) if successfully managed clinically and resolved within 7 days without any end-organ damage; (4) Asymptomatic ≥grade 3 electrolyte abnormalities not considered clinically significant by the investigator. […] For certain toxicities such as laboratory assessments without a clear clinical correlate, a discussion between the investigator and the sponsor determined whether the adverse event (AE) should be assessed as a DLT.
DLTs identified during the first cycle of treatment were used to guide dose-escalation decisions and to determine the MTD, and if safety issues appeared in subsequent cycles they were also to be considered. Hydroxyurea was permitted during the first cycle if white blood cell (WBC) exceeded 20 × 10^9/L and was also permitted for treatment of DS.
Safety and tolerability were evaluated by analysis of adverse events, physical examinations, vital signs, ECOG performance status, and various laboratory assessments. For safety monitoring, subjects were scheduled for clinic visits every week for the initial three cycles of treatment, after which time visits could be reduced to every-other-week with investigator and sponsor agreement. Cardiac function was assessed with triplicate 12-lead electrocardiograms (ECG) at screening, C1-D1, C1-D2, C1-D15, D1 of every subsequent cycle, and at treatment end. […] AEs are presented by the Medical Dictionary for Regulatory Activities (MedDRA) v21.1.

C[C@H]1C[C@@H](n2c(Nc3ccc(OC(F)(F)F)cc3)nc3cc(CCC(=O)O)ccc32)CC(C)(C)C1 [BAY1436032]
TEAE Decreased appetite Grade 1: 0
TEAE Decreased appetite Grade 2: 0
TEAE Decreased appetite Grade 3: 0
TEAE Diarrhea Grade 1: 0
TEAE Diarrhea Grade 2: 0
TEAE Dry skin Grade 1: 1
TEAE Dyspnoea Grade 1: 0
TEAE Dyspnoea Grade 2: 0
TEAE Dyspnoea Grade 3: 0
TEAE Epistaxis Grade 1: 1
TEAE Epistaxis Grade 2: 0
TEAE Epistaxis Grade 3: 1
TEAE Fall Grade 1: 1
TEAE Fatigue Grade 1: 1
TEAE Fatigue Grade 2: 0
TEAE Fatigue Grade 3: 0
TEAE Febrile neutropenia Grade 3: 1
TEAE General physical health deterioration Grade 3: 0
TEAE General physical health deterioration Grade 5: 0
TEAE Gingivitis Grade 1: 1
TEAE Haematuria Grade 1: 0
TEAE Haematuria Grade 2: 1
TEAE Haematuria Grade 3: 0
TEAE Headache Grade 1: 0
TEAE Headache Grade 2: 0
TEAE Headache Grade 3: 0
TEAE Hyperkalaemia Grade 1: 1
TEAE Hyperkalaemia Grade 4: 1
TEAE Hypertension Grade 2: 0
TEAE Hypertension Grade 3: 0
TEAE Hyperuricaemia Grade 1: 1
TEAE Hyperuricaemia Grade 3: 1
TEAE Hypokalaemia Grade 1: 0
TEAE Hypokalaemia Grade 2: 0
TEAE Hypokalaemia Grade 3: 0
TEAE Hyponatraemia Grade 1: 0
TEAE Hyponatraemia Grade 3: 0
TEAE Hypophosphataemia Grade 1: 0
TEAE Hypophosphataemia Grade 2: 0
TEAE Leukocytosis Grade 2: 0
TEAE Leukocytosis Grade 3: 0
TEAE Lung infection Grade 3: 1
TEAE Lung infection Grade 5: 0
TEAE Nausea Grade 1: 1
TEAE Nausea Grade 2: 0
TEAE Nausea Grade 3: 0
TEAE Oedema peripheral Grade 1: 1
TEAE Oedema peripheral Grade 3: 0
TEAE Pain in extremity Grade 1: 0
TEAE Pain in extremity Grade 2: 0
TEAE Pneumonia Grade 1: 0
TEAE Pneumonia Grade 2: 0
TEAE Pneumonia Grade 3: 0
TEAE Pneumonia fungal Grade 2: 0
TEAE Pneumonia fungal Grade 3: 0
TEAE Pneumonia fungal Grade 4: 0
TEAE Productive cough Grade 1: 1
TEAE Productive cough Grade 2: 0
TEAE Pyrexia Grade 1: 1
TEAE Pyrexia Grade 2: 1
TEAE Pyrexia Grade 3: 0
TEAE Rash Grade 1: 0
TEAE Rash Grade 2: 1
TEAE Sepsis Grade 4: 1
TEAE Sepsis Grade 5: 0
TEAE Sinus tachycardia Grade 1: 0
TEAE Thrombocytopenia Grade 4: 0

— paper PMC7584476, “Safety and efficacy of BAY1436032 in IDH1-mutant AML: phase I study results” (Leukemia, 2020)
